Each compound was assayed on greenhouse red spider mite (Tetranychus urticae) (assay: Tetranychus urticae spray test, OP-resistant (TETRUR), bean leaf disks). Conditions: Tetranychus urticae, foliar, 144 h, application rate 500 g/ha, after 6 days; read-out: efficacy (spider mites killed).
Format: in vivo
Experimental: After 6 days, the effect in % is determined.

Structure (SMILES) | pest or weed control at 500 g/ha [%]
Cc1cc(F)c(/N=C(/NCC2CC2)C(F)(F)F)cc1[S+]([O-])CC(F)(F)F (stereo not drawn) [Ib-29] | 100
Cc1cc(Cl)c(/N=C(\N)C(F)(F)C(F)(F)Cl)cc1[S+]([O-])CC(F)(F)F (stereo not drawn) [Ib-31] | 100
CN(C)/C(=N/c1cc([S+]([O-])CC(F)(F)F)c(Cl)cc1F)C(F)(F)F (stereo not drawn) [Ib-32] | 100
CCN(CC)/C(=N/c1cc([S+]([O-])CC(F)(F)F)c(C)cc1F)C(F)(F)F (stereo not drawn) [Ib-34] | 100
Cc1cc(F)c(/N=C(/NC2(C)CC2)C(F)(F)F)cc1[S+]([O-])CC(F)(F)F (stereo not drawn) [Ib-36] | 100
CN/C(=N\c1cc([S+]([O-])CC(F)(F)F)c(C)cc1F)c1ccc(Cl)cc1 (stereo not drawn) [Ib-37] | 100
CN/C(=N/c1cc([S+]([O-])CC(F)(F)F)c(Cl)cc1F)C(F)(F)F (stereo not drawn) [Ib-41] | 90
Cc1cc(F)c(/N=C(\N)c2ccccn2)cc1[S+]([O-])CC(F)(F)F (stereo not drawn) [Ib-45] | 100
CCN/C(=N\c1cc([S+]([O-])CC(F)(F)F)c(C)cc1F)C1CC1 (stereo not drawn) [Ib-46] | 100
Cc1cc(F)c(/N=C(/NC(C)(C)C)C(F)(F)F)cc1[S+]([O-])CC(F)(F)F (stereo not drawn) [Ib-50] | 100
Cc1cc(F)c(/N=C(/C2CC2)N(C)C)cc1[S+]([O-])CC(F)(F)F (stereo not drawn) [Ib-51] | 100
Cc1cc(F)c(/N=C2\CCCCN2C)cc1[S+]([O-])CC(F)(F)F (stereo not drawn) [Ib-52] | 100
Cc1cc(F)c(/N=C(\N)C2CC2)cc1[S+]([O-])CC(F)(F)F (stereo not drawn) [Ib-53] | 100
Cc1cc(F)c(/N=C(/NC2COC2)C(F)(F)F)cc1[S+]([O-])CC(F)(F)F (stereo not drawn) [Ib-54] | 90
Cc1cc(F)c(/N=C(\c2ccc(F)cc2)N(C)C)cc1[S+]([O-])CC(F)(F)F (stereo not drawn) [Ib-60] | 90
Cc1cc(F)c(/N=C(\c2ccc(C#N)cc2)N(C)C)cc1[S+]([O-])CC(F)(F)F (stereo not drawn) [Ib-61] | 100
Cc1cc(F)c(/N=C(\N)c2cccnc2)cc1[S+]([O-])CC(F)(F)F (stereo not drawn) [Ib-63] | 100
N/C(=N\c1cc([S+]([O-])CC(F)(F)F)c(Cl)cc1Cl)C1(Cl)CC1 (stereo not drawn) [Ib-64] | 100
Cc1cc(F)c(/N=C(\N)c2ccncn2)cc1[S+]([O-])CC(F)(F)F (stereo not drawn) [Ib-65] | 100
Cc1cc(F)c(/N=C(\c2cccc(F)c2)N(C)C)cc1[S+]([O-])CC(F)(F)F (stereo not drawn) [Ib-66] | 90
CN/C(=N/c1cc([S+]([O-])CC(F)(F)F)c(C)cc1F)c1cccc(F)c1 (stereo not drawn) [Ib-67] | 90
N/C(=N\c1cc([S+]([O-])CC(F)(F)F)c(Cl)cc1Cl)c1ccncn1 (stereo not drawn) [Ib-69] | 100
Cc1cc(F)c(/N=C(\N)C2(C#N)CC2)cc1[S+]([O-])CC(F)(F)F (stereo not drawn) [Ib-72] | 100
Cc1cc(F)c(/N=C(/c2ccc(Cl)cc2)N(C)C)cc1[S+]([O-])CC(F)(F)F (stereo not drawn) [Ib-73] | 90
Cc1cc(F)c(/N=C(/NCc2ccccc2)C(F)(F)F)cc1[S+]([O-])CC(F)(F)F (stereo not drawn) [Ib-74] | 90
Cc1cc(F)c(/N=C(\c2ccc(C(F)(F)F)nc2)N(C)C)cc1[S+]([O-])CC(F)(F)F (stereo not drawn) [Ib-75] | 100

Structure (SMILES) | pest or weed control at 500 g/ha [%]
CN/C(=N\c1cc([S+]([O-])CC(F)(F)F)c(C)cc1F)c1cccc(Cl)c1 (stereo not drawn) [Ib-76] | 100
Cc1cc(C)c([S+]([O-])CC(F)(F)F)cc1/N=C(\N)C1(Cl)CC1 (stereo not drawn) [Ib-79] | 100
N/C(=N\c1cc([S+]([O-])CC(F)(F)F)c(Cl)cc1Cl)C(F)F (stereo not drawn) [Ib-80] | 100
Cc1cc(F)c(/N=C(\c2cccs2)N(C)C)cc1[S+]([O-])CC(F)(F)F (stereo not drawn) [Ib-81] | 100
Cc1cc(F)c(/N=C(\c2cccn2C)N(C)C)cc1[S+]([O-])CC(F)(F)F (stereo not drawn) [Ib-82] | 100
CCN/C(=N\c1cc([S+]([O-])CC(F)(F)F)c(C)cc1F)c1cccnc1 (stereo not drawn) [Ib-84] | 100
Cc1cc(F)c(/N=C(\c2ccccc2F)N(C)C)cc1[S+]([O-])CC(F)(F)F (stereo not drawn) [Ib-87] | 100
Cc1cc(F)c(/N=C(\NC2CC2)c2ccc(Cl)nc2)cc1[S+]([O-])CC(F)(F)F (stereo not drawn) [Ib-88] | 100
CN/C(=N\c1cc([S+]([O-])CC(F)(F)F)c(Cl)cc1C)C(F)(F)F (stereo not drawn) [Ib-90] | 100
Cc1cc(F)c(/N=C(/NC2CS(=O)(=O)C2)C(F)(F)F)cc1[S+]([O-])CC(F)(F)F (stereo not drawn) [Ib-91] | 90
CN/C(=N/c1cc([S+]([O-])CC(F)(F)F)c(C)cc1F)c1ccc(C(F)(F)F)nc1 (stereo not drawn) [Ib-92] | 100
Cc1cc(C)c([S+]([O-])CC(F)(F)F)cc1/N=C(\N)c1ccc(Cl)nc1 (stereo not drawn) [Ib-94] | 100
CN/C(=N\c1cc([S+]([O-])CC(F)(F)F)c(Cl)cc1Cl)c1cccnc1 (stereo not drawn) [Ib-95] | 100
Cc1cc(F)c(/N=C(/N2CCCC2)C(F)(F)F)cc1[S+]([O-])CC(F)(F)F (stereo not drawn) [Ib-96] | 90
CN/C(=N\c1cc([S+]([O-])CC(F)(F)F)c(C)cc1F)c1ccncc1 (stereo not drawn) [Ib-97] | 100
Cc1cc(C)c([S+]([O-])CC(F)(F)F)cc1/N=C(/c1cccnc1)N(C)C (stereo not drawn) [Ib-98] | 100
Cc1cc(F)c(/N=C(\N)C2CCC2)cc1[S+]([O-])CC(F)(F)F (stereo not drawn) [Ib-99] | 100
CN/C(=N\c1cc([S+]([O-])CC(F)(F)F)c(C)cc1C)c1ccc(Cl)cc1 (stereo not drawn) [Ib-100] | 100
Cc1cc(C)c([S+]([O-])CC(F)(F)F)cc1/N=C(\N)c1ccccn1 (stereo not drawn) [Ib-102] | 90
CN/C(=N\c1cc([S+]([O-])CC(F)(F)F)c(Cl)cc1C)c1cccnc1 (stereo not drawn) [Ib-103] | 90
CN/C(=N\c1cc([S+]([O-])CC(F)(F)F)c(C)cc1F)c1cnc(Cl)c(Cl)c1 (stereo not drawn) [Ib-104] | 90
CN/C(=N\c1cc([S+]([O-])CC(F)(F)F)c(Cl)cc1Cl)c1ccccn1 (stereo not drawn) [Ib-109] | 100
Cc1cc(C)c([S+]([O-])CC(F)(F)F)cc1/N=C1\CCCN1C(C)C(F)(F)F (stereo not drawn) [Ib-112] | 100
CN/C(=N/c1cc([S+]([O-])CC(F)(F)F)c(C)cc1F)c1cccc(C(F)(F)F)c1 (stereo not drawn) [Ib-113] | 100
Cc1cc(F)c(/N=C(\c2cccc(C(F)(F)F)c2)N(C)C)cc1[S+]([O-])CC(F)(F)F (stereo not drawn) [Ib-114] | 100
Cc1cc(F)c(/N=C2\SCC(=O)N2CC(F)F)cc1[S+]([O-])CC(F)(F)F (stereo not drawn) [Ib-116] | 90

Structure (SMILES) | pest or weed control at 500 g/ha [%]
O=C1CS/C(=N\c2cc([S+]([O-])CC(F)(F)F)ccc2F)N1CC(F)(F)F (stereo not drawn) [Ib-117] | 100
Cc1cc(F)c(/N=C(/N)c2ccc(Cl)cc2)cc1[S+]([O-])CC(F)(F)F (stereo not drawn) [Ib-118] | 100
CN(C)/C(=N\c1cc([S+]([O-])CC(F)(F)F)c(Cl)cc1Cl)c1ccc(Cl)nc1 (stereo not drawn) [Ib-119] | 100
O=C1CS/C(=N\c2cc([S+]([O-])CC(F)(F)F)c(Cl)cc2F)N1CC(F)(F)F (stereo not drawn) [Ib-120] | 100
O=C1CS/C(=N\c2cc([S+]([O-])CC(F)(F)F)ccc2Cl)N1CC(F)(F)F (stereo not drawn) [Ib-121] | 100
O=C1CS/C(=N\c2cc([S+]([O-])CC(F)(F)F)c(Cl)cc2Cl)N1C1CC1 (stereo not drawn) [Ib-122] | 90
Cc1cc(F)c(/N=C(\c2ccc(C(F)(F)F)cc2)N(C)C)cc1[S+]([O-])CC(F)(F)F (stereo not drawn) [Ib-124] | 90
CN/C(=N/c1ccc(C)c([S+]([O-])CC(F)(F)F)c1)C(F)(F)F (stereo not drawn) [Ib-125] | 100
Cc1cc(C)c([S+]([O-])CC(F)(F)F)cc1/N=C(/c1ccccc1)N(C)C (stereo not drawn) [Ib-126] | 100
CN(C)/C(=N\c1cc([S+]([O-])CC(F)(F)F)c(Cl)cc1Cl)c1ccccc1 (stereo not drawn) [Ib-127] | 100
Cc1cc(F)c(/N=C/N(C)C)cc1[S+]([O-])CC(F)(F)F (stereo not drawn) [Ib-128] | 90
[O-][S+](CC(F)(F)F)c1cc(/N=C(\NCC(F)F)C2CC2)c(Cl)cc1Cl (stereo not drawn) [Ib-129] | 100
[O-][S+](CC(F)(F)F)c1cc(/N=C(\NCCc2ncc(C(F)(F)F)cc2Cl)C2CC2)c(Cl)cc1Cl (stereo not drawn) [Ib-130] | 100
Cc1cc(F)c(/N=C(\N)C2CCCCC2)cc1[S+]([O-])CC(F)(F)F (stereo not drawn) [Ib-131] | 100
Cc1cc(F)c(/N=C(\NCC(F)F)C2CC2)cc1[S+]([O-])CC(F)(F)F (stereo not drawn) [Ib-132] | 100
Cc1cc(C)c([S+]([O-])CC(F)(F)F)cc1/N=C(/c1ccc(Cl)nc1)N(C)C (stereo not drawn) [Ib-133] | 90
Cc1cc(F)c(/N=C2\SCC(=O)N2C)cc1[S+]([O-])CC(F)(F)F (stereo not drawn) [Ib-134] | 90
Cc1cc(F)c(/N=C2\SCC(=O)N2C2CC2)cc1[S+]([O-])CC(F)(F)F (stereo not drawn) [Ib-135] | 100
Cc1cc(C)c([S+]([O-])CC(F)(F)F)cc1/N=C(\NC1CC1)c1ccc(Cl)nc1 (stereo not drawn) [Ib-136] | 90
Cc1cc(Cl)c([S+]([O-])CC(F)(F)F)cc1/N=C(\N)C1(Cl)CC1 (stereo not drawn) [Ib-138] | 100
Cc1ccc(/N=C2\SCC(=O)N2CC(F)(F)F)cc1[S+]([O-])CC(F)(F)F (stereo not drawn) [Ib-139] | 100
CN/C(=N\c1cc([S+]([O-])CC(F)(F)F)c(Cl)cc1Cl)c1cccc(Cl)c1 (stereo not drawn) [Ib-140] | 100
Cc1cc(C)c([S+]([O-])CC(F)(F)F)cc1/N=C1\SCC(=O)N1CC(F)(F)F (stereo not drawn) [Ib-141] | 100
Cc1cc(C)c([S+]([O-])CC(F)(F)F)cc1/N=C(\NCC(F)(F)F)C1CCC1 (stereo not drawn) [Ib-142] | 90

Same assay, conditions: application rate 500 g/ha, after 6 days

Structure (SMILES) | efficacy (spider mites killed) [%]
Cc1cc(F)c(/N=C(\c2ccc(C#N)cc2)N(C)C)cc1[S+]([O-])CC(F)(F)F (stereo not drawn) [Ib-77] | 90
CN/C(=N\c1cc([S+]([O-])CC(F)(F)F)c(C)cc1F)c1cccnc1 (stereo not drawn) [Ib-93] | 100
